{"source": "patent US20080254983A1", "about": "“Herbicide Composition” (NUFARM AUSTRALIA LIMITED, priority 2005, published 2008)", "system": "Annual Ryegrass (LOLRI)", "assay": "Field trials throughout Australia, annual ryegrass (LOLRI) counts", "assay_type": "in vivo", "conditions": "for % control: from mean vs untreated control; for Mean Plants/m2: mean of the seven trials", "experimental": "A series of field trials were conducted throughout Australia to assess the performance of Example 5 composition (400 g/L trifluralin+117 g/L cinmethylin+UAN compatibiliser) versus the performance of either trifluralin or cinmethylin applied as standalone treatments.\nAll trials were sown under a knifepoint/reduced tillage seeding systems with trial design and management reflecting common district and grower practice. Rates of herbicide application were designed to allow comparison of the co-mixture and solvency package against the relative merits of either active ingredient applied alone in their currently available commercial formulation package (see table below).\nProducts were applied prior to sowing and were applied in water with industry accepted application equipment and spray nozzles.", "data": [{"smiles": "Cc1ccccc1CO[C@@H]1C[C@@]2(C(C)C)CC[C@]1(C)O2", "note": "(racemic) [Cinmethylin]", "values": [{"measurement": "LOLRI Plants/m2", "setting": "100 gai/ha, Vic Lentils 81-DAT", "result": 18, "unit": "Plants/m2"}, {"measurement": "LOLRI Plants/m2", "setting": "100 gai/ha, Vic Lentils H02 51-DAT", "result": 15, "unit": "Plants/m2"}, {"measurement": "LOLRI Plants/m2", "setting": "100 gai/ha, Vic Wheat 49-DAT", "result": 69, "unit": "Plants/m2"}, {"measurement": "LOLRI Plants/m2", "setting": "100 gai/ha, Vic Wheat H03 79-DAT", "result": 136, "unit": "Plants/m2"}, {"measurement": "LOLRI Plants/m2", "setting": "100 gai/ha, WA Canola W06-197 27-DAT", "result": 419, "unit": "Plants/m2"}, {"measurement": "LOLRI Plants/m2", "setting": "100 gai/ha, WA Lupins W06-200 19-DAT", "result": 503, "unit": "Plants/m2"}, {"measurement": "LOLRI Plants/m2", "setting": "100 gai/ha, WA Wheat W06-196 27-DAT", "result": 300, "unit": "Plants/m2"}, {"measurement": "% control", "setting": "100 gai/ha", "result": 46, "unit": "%"}, {"measurement": "Mean Plants/m2", "setting": "100 gai/ha", "result": 208, "unit": "Plants/m2"}, {"measurement": "LOLRI Plants/m2", "setting": "200 gai/ha, Vic Lentils 81-DAT", "result": 10, "unit": "Plants/m2"}, {"measurement": "LOLRI Plants/m2", "setting": "200 gai/ha, Vic Lentils H02 51-DAT", "result": 8, "unit": "Plants/m2"}, {"measurement": "LOLRI Plants/m2", "setting": "200 gai/ha, Vic Wheat 49-DAT", "result": 67, "unit": "Plants/m2"}, {"measurement": "LOLRI Plants/m2", "setting": "200 gai/ha, Vic Wheat H03 79-DAT", "result": 78, "unit": "Plants/m2"}, {"measurement": "LOLRI Plants/m2", "setting": "200 gai/ha, WA Canola W06-197 27-DAT", "result": 307, "unit": "Plants/m2"}, {"measurement": "LOLRI Plants/m2", "setting": "200 gai/ha, WA Lupins W06-200 19-DAT", "result": 235, "unit": "Plants/m2"}, {"measurement": "LOLRI Plants/m2", "setting": "200 gai/ha, WA Wheat W06-196 27-DAT", "result": 264, "unit": "Plants/m2"}, {"measurement": "% control", "setting": "200 gai/ha", "result": 64, "unit": "%"}, {"measurement": "Mean Plants/m2", "setting": "200 gai/ha", "result": 138, "unit": "Plants/m2"}, {"measurement": "LOLRI Plants/m2", "setting": "400 gai/ha, Vic Lentils 81-DAT", "result": 14, "unit": "Plants/m2"}, {"measurement": "LOLRI Plants/m2", "setting": "400 gai/ha, Vic Lentils H02 51-DAT", "result": 10, "unit": "Plants/m2"}, {"measurement": "LOLRI Plants/m2", "setting": "400 gai/ha, Vic Wheat 49-DAT", "result": 22, "unit": "Plants/m2"}, {"measurement": "LOLRI Plants/m2", "setting": "400 gai/ha, Vic Wheat H03 79-DAT", "result": 19, "unit": "Plants/m2"}, {"measurement": "LOLRI Plants/m2", "setting": "400 gai/ha, WA Canola W06-197 27-DAT", "result": 324, "unit": "Plants/m2"}, {"measurement": "LOLRI Plants/m2", "setting": "400 gai/ha, WA Lupins W06-200 19-DAT", "result": 124, "unit": "Plants/m2"}, {"measurement": "LOLRI Plants/m2", "setting": "400 gai/ha, WA Wheat W06-196 27-DAT", "result": 229, "unit": "Plants/m2"}, {"measurement": "% control", "setting": "400 gai/ha", "result": 73, "unit": "%"}, {"measurement": "Mean Plants/m2", "setting": "400 gai/ha", "result": 106, "unit": "Plants/m2"}]}, {"smiles": "CCCN(CCC)c1c([N+](=O)[O-])cc(C(F)(F)F)cc1[N+](=O)[O-]", "note": "[Trifluralin, trifluralin]", "values": [{"measurement": "LOLRI Plants/m2", "setting": "720 gai/ha, Vic Lentils 81-DAT", "result": 26, "unit": "Plants/m2"}, {"measurement": "LOLRI Plants/m2", "setting": "720 gai/ha, Vic Lentils H02 51-DAT", "result": 21, "unit": "Plants/m2"}, {"measurement": "LOLRI Plants/m2", "setting": "720 gai/ha, Vic Wheat 49-DAT", "result": 105, "unit": "Plants/m2"}, {"measurement": "LOLRI Plants/m2", "setting": "720 gai/ha, Vic Wheat H03 79-DAT", "result": 168, "unit": "Plants/m2"}, {"measurement": "LOLRI Plants/m2", "setting": "720 gai/ha, WA Canola W06-197 27-DAT", "result": 264, "unit": "Plants/m2"}, {"measurement": "LOLRI Plants/m2", "setting": "720 gai/ha, WA Lupins W06-200 19-DAT", "result": 224, "unit": "Plants/m2"}, {"measurement": "LOLRI Plants/m2", "setting": "720 gai/ha, WA Wheat W06-196 27-DAT", "result": 191, "unit": "Plants/m2"}, {"measurement": "% control", "setting": "720 gai/ha", "result": 63, "unit": "%"}, {"measurement": "Mean Plants/m2", "setting": "720 gai/ha", "result": 143, "unit": "Plants/m2"}, {"measurement": "LOLRI Plants/m2", "setting": "960 gai/ha, Vic Lentils 81-DAT", "result": 22, "unit": "Plants/m2"}, {"measurement": "LOLRI Plants/m2", "setting": "960 gai/ha, Vic Lentils H02 51-DAT", "result": 19, "unit": "Plants/m2"}, {"measurement": "LOLRI Plants/m2", "setting": "960 gai/ha, Vic Wheat 49-DAT", "result": 10, "unit": "Plants/m2"}, {"measurement": "LOLRI Plants/m2", "setting": "960 gai/ha, Vic Wheat H03 79-DAT", "result": 22, "unit": "Plants/m2"}, {"measurement": "LOLRI Plants/m2", "setting": "960 gai/ha, WA Canola W06-197 27-DAT", "result": 208, "unit": "Plants/m2"}, {"measurement": "LOLRI Plants/m2", "setting": "960 gai/ha, WA Lupins W06-200 19-DAT", "result": 169, "unit": "Plants/m2"}, {"measurement": "LOLRI Plants/m2", "setting": "960 gai/ha, WA Wheat W06-196 27-DAT", "result": 207, "unit": "Plants/m2"}, {"measurement": "% control", "setting": "960 gai/ha", "result": 76, "unit": "%"}, {"measurement": "Mean Plants/m2", "setting": "960 gai/ha", "result": 94, "unit": "Plants/m2"}, {"measurement": "LOLRI Plants/m2", "setting": "1440 gai/ha, Vic Lentils 81-DAT", "result": 23, "unit": "Plants/m2"}, {"measurement": "LOLRI Plants/m2", "setting": "1440 gai/ha, Vic Lentils H02 51-DAT", "result": 14, "unit": "Plants/m2"}, {"measurement": "LOLRI Plants/m2", "setting": "1440 gai/ha, Vic Wheat 49-DAT", "result": 29, "unit": "Plants/m2"}, {"measurement": "LOLRI Plants/m2", "setting": "1440 gai/ha, Vic Wheat H03 79-DAT", "result": 33, "unit": "Plants/m2"}, {"measurement": "LOLRI Plants/m2", "setting": "1440 gai/ha, WA Canola W06-197 27-DAT", "result": 156, "unit": "Plants/m2"}, {"measurement": "LOLRI Plants/m2", "setting": "1440 gai/ha, WA Lupins W06-200 19-DAT", "result": 184, "unit": "Plants/m2"}, {"measurement": "LOLRI Plants/m2", "setting": "1440 gai/ha, WA Wheat W06-196 27-DAT", "result": 135, "unit": "Plants/m2"}, {"measurement": "% control", "setting": "1440 gai/ha", "result": 79, "unit": "%"}, {"measurement": "Mean Plants/m2", "setting": "1440 gai/ha", "result": 82, "unit": "Plants/m2"}]}]}
